Data from publication PMC4471549 (Angewandte Chemie (International Ed. in English), 2015).

Columns and labels:
[1] = biological target: T1, STAT5a (SH2 domain) (Homo sapiens, UniProt P42229); test: competitive fluorescence polarization assay; format: binding
T1 sequence (P42229 1-794): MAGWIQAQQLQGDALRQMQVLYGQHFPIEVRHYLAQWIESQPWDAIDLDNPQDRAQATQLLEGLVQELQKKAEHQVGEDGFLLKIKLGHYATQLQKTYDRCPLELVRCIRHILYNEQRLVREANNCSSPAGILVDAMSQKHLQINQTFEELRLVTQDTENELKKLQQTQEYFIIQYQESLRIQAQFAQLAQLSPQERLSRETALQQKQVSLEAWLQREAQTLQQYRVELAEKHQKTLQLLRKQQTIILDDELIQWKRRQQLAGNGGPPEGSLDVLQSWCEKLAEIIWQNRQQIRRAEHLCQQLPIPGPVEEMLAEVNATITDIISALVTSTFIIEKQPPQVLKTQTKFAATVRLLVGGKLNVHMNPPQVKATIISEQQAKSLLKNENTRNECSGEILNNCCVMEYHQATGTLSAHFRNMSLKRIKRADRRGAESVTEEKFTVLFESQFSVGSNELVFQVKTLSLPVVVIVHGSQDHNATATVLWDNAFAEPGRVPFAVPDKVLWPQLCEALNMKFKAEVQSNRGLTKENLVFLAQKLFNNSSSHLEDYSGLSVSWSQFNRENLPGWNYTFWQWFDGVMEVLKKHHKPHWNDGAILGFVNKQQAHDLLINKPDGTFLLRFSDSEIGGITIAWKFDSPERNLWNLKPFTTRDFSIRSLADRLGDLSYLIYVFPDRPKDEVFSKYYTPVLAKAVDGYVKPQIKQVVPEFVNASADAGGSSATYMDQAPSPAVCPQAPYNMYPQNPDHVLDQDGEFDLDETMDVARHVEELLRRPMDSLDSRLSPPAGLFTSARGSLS

[2] = biological target: T2, STAT5b (SH2 domain) (Homo sapiens, UniProt P51692); test: competitive fluorescence polarization assay; format: binding
T2 sequence (P51692 1-787 limits assumed): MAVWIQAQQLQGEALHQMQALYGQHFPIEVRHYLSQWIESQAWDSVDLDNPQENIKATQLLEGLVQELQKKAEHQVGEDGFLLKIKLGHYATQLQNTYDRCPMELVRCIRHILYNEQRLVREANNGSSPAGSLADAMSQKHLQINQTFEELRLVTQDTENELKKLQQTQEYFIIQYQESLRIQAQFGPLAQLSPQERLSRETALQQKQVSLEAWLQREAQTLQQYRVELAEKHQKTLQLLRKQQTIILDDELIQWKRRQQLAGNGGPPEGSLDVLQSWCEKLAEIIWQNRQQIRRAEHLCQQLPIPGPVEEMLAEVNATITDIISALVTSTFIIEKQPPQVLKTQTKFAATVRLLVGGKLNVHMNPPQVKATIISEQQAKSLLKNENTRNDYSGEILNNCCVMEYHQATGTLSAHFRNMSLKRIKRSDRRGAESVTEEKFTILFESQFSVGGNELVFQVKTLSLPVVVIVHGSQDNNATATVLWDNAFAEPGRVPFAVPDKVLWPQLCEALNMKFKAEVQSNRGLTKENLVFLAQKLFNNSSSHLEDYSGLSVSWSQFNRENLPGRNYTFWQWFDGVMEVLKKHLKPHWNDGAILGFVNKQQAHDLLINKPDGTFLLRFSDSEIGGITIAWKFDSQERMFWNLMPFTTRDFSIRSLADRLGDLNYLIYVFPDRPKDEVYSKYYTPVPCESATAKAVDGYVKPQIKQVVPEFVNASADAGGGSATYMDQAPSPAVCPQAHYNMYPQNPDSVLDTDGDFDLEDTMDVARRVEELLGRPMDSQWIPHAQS

Ki [1] [µM]	Ki [2] [µM]	Compound
16 ± 0.8	0.45 ± 0.04	O=C(NCCc1ccc(OP(=O)(O)O)c(OP(=O)(O)O)c1)OCC1c2ccccc2-c2ccccc21 [compound 7, Fmoc-protected dopamine bisphosphate]
7.8 ± 1	0.46 ± 0.08	COC(=O)[C@H](Cc1ccc(OP(=O)(O)O)c(OP(=O)(O)O)c1)NC(=O)OCC1c2ccccc2-c2ccccc21 [compound 8, Fmoc-protected L-Dopa methyl ester bisphosphate]
